Data: patent publication US8163793B2, “Proline derivatives” (Hoffman-La Roche Inc., priority 2009, dated 2012)

Key:
Cat L = Cat L (UniProt P07711); test: Cathepsin enzyme inhibition assay (fluorogenic peptide substrate Z-Val-Val-Arg-AMC), Cathepsin L; type: biochemical, human and mouse; conditions: enzyme 1 nM, substrate 20 μM, pH 6.5; read-out: CatL IC50
In short: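 Cathepsin L at 1 nM was mixed with compound, then started with 20 μM Z-Val-Val-Arg-AMC in pH 6.5 potassium phosphate with EDTA, Triton X-100 and 5 mM DTT. AMC fluorescence (ex 360/em 465 nm) was followed over 20 min. IC50 is given in μM.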

Cathepsin S = Cathepsin S (UniProt P25774); test: Cathepsin enzyme inhibition assay (fluorogenic peptide substrate Z-Val-Val-Arg-AMC), Cathepsin S; type: biochemical, human and mouse; conditions: enzyme 1 nM, substrate 20 μM, pH 6.5; read-out: CatS IC50
In short: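 Human or mouse cathepsin S (1 nM) was run in 100 mM potassium phosphate pH 6.5 with 5 mM EDTA, 0.001% Triton X-100 and 5 mM DTT. The rise in AMC fluorescence from cleavage was measured, and IC50 values were calculated by standard methods and expressed in μM.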

Structure (SMILES) | IC50 (Cat L) | IC50 (Cathepsin S)
N#CC1(NC(=O)[C@@H]2C[C@@H](S(=O)(=O)c3ccccc3Cl)CN2C(=O)C2(c3ccc(C(F)(F)F)cc3)CC2)CC1 [Example 427, (2S,4R)-4-(2-chlorophenylsulfonyl)-N-(1-cyanocyclopropyl)-1-(1-(4-(trifluoromethyl)phenyl)cyclopropanecarbonyl)pyrrolidine-2-carboxamide] | 95 nM | 0.51 nM
N#CC1(NC(=O)[C@@H]2C[C@@H](S(=O)(=O)c3ccccc3Cl)CN2C(=O)C2(c3cccc(Cl)c3)CC2)CC1 [Example 428, (2S,4R)-1-(1-(3-chlorophenyl)cyclopropanecarbonyl)-4-(2-chlorophenylsulfonyl)-N-(1-cyanocyclopropyl)pyrrolidine-2-carboxamide] | 335 nM | 0.415 nM
N#CC1(NC(=O)[C@@H]2C[C@@H](S(=O)(=O)c3ccccc3Cl)CN2C(=O)C2(c3cccc(C(F)(F)F)c3)CC2)CC1 [Example 429, (2S,4R)-4-(2-chlorophenylsulfonyl)-N-(1-cyanocyclopropyl)-1-(1-(3-(trifluoromethyl)phenyl)cyclopropanecarbonyl)pyrrolidine-2-carboxamide] | 460 nM | 0.365 nM
CC(C(=O)N1C[C@H](S(=O)(=O)c2ccccc2Cl)C[C@H]1C(=O)NC1(C#N)CC1)c1ccc(Cl)cc1 (stereo partly drawn) [Example 430, (2S,4R)-1-(2-(4-chlorophenyl)propanoyl)-4-(2-chlorophenylsulfonyl)-N-(1-cyanocyclopropyl)pyrrolidine-2-carboxamide] | 2590 nM | 0.82 nM
CC(C(=O)N1C[C@H](S(=O)(=O)c2ccccc2Cl)C[C@H]1C(=O)NC1(C#N)CC1)c1ccc(Cl)cc1 (some centres unmarked) [Example 431] | 130 nM | 0.875 nM
CC(C)C(C(=O)N1C[C@H](S(=O)(=O)c2ccccc2Cl)C[C@H]1C(=O)NC1(C#N)CC1)c1ccc(Cl)cc1 (stereo partly drawn) [Example 432, (2S,4R)-1-(2-(4-chlorophenyl)-3-methylbutanoyl)-4-(2-chlorophenylsulfonyl)-N-(1-cyanocyclopropyl)pyrrolidine-2-carboxamide] | 115 nM | 0.595 nM
CC(C)(C)OC(=O)N1CCC(C(=O)N2C[C@H](S(=O)(=O)c3ccccc3Cl)C[C@H]2C(=O)NC2(C#N)CC2)(c2ccc(Cl)cc2)CC1 [Example 433, tert-butyl 4-(4-chlorophenyl)-4-((2S,4R)-4-(2-chlorophenylsulfonyl)-2-(1-cyanocyclopropylcarbamoyl)pyrrolidine-1-carbonyl)piperidine-1-carboxylate] | 945 nM | 1.95 nM
N#CC1(NC(=O)[C@@H]2C[C@@H](S(=O)(=O)c3ccccc3Cl)CN2C(=O)C(F)(F)c2ccc(Cl)c(Cl)c2)CC1 [Example 437, (2S,4R)-4-(2-Chloro-benzenesulfonyl)-1-[2-(3,4-dichloro-phenyl)-2,2-difluoro-acetyl]-pyrrolidine-2-carboxylic acid (1-cyano-cyclopropyl)-amide] | 335 nM | 1.45 nM
N#CC1(NC(=O)[C@@H]2C[C@@H](S(=O)(=O)c3ccccc3Cl)CN2C(=O)C2(c3ccc(Cl)cc3F)CC2)CC1 [Example 439, (2S,4R)-1-(1-(4-chloro-2-fluorophenyl)cyclopropanecarbonyl)-4-(2-chlorophenylsulfonyl)-N-(1-cyanocyclopropyl)pyrrolidine-2-carboxamide] | 29.5 nM | 0.895 nM
CS(=O)(=O)[C@@H]1C[C@@H](C(=O)NC2(C#N)CC2)N(C(=O)C2(C(F)(F)F)CC2)C1 [Example 440, (2S,4R)-4-Methanesulfonyl-1-(1-trifluoromethyl-cyclopropanecarbonyl)-pyrrolidine-2-carboxylic acid (1-cyano-cyclopropyl)-amide] | ≥ 25000 nM | 7470 nM
CC(C)(C)c1ccc([C@@H]2N[C@](CCS(=O)(=O)c3ccccc3)(C(=O)NC3(C#N)CC3)C[C@H]2S(=O)(=O)c2ccccc2)cc1 [Example 441, (2S,4R,5S)-5-(4-tert-butylphenyl)-N-(1-cyanocyclopropyl)-4-(phenylsulfonyl)-2-(2-(phenylsulfonyl)ethyl)pyrrolidine-2-carboxamide] | ≥ 25000 nM | 85.5 nM
N#CC1(NC(=O)[C@@H]2C[C@@H](S(=O)(=O)c3ccccc3Cl)CN2C(=O)C(F)(F)c2ccc(Cl)cc2)CC1 [Example 442, (2S,4R)-4-(2-Chloro-benzenesulfonyl)-1-[2-(4-chloro-phenyl)-2,2-difluoro-acetyl]-pyrrolidine-2-carboxylic acid (1-cyano-cyclopropyl)-amide] | 240 nM | 0.615 nM
N#CC1(NC(=O)[C@@H]2C[C@@H](S(=O)(=O)c3ccccc3Cl)CN2C(=O)C2(c3ccc(Cl)cc3Cl)CC2)CC1 [Example 443, (2S,4R)-4-(2-Chloro-benzenesulfonyl)-1-[1-(2,4-dichloro-phenyl)-cyclopropanecarbonyl]-pyrrolidine-2-carboxylic acid (1-cyano-cyclopropyl)-amide] | 22 nM | 0.605 nM
N#CC1(NC(=O)[C@@H]2C[C@@H](S(=O)(=O)c3ccccc3Cl)CN2C(=O)Cc2ccc(Cl)c(F)c2)CC1 [Example 444, (2S,4R)-4-(2-Chloro-benzenesulfonyl)-1-[2-(4-chloro-3-fluoro-phenyl)-acetyl]-pyrrolidine-2-carboxylic acid (1-cyano-cyclopropyl)-amide] | 260 nM | 0.895 nM
Cc1cc(N2C[C@H](S(=O)(=O)CC3CC3)C[C@H]2C(=O)NC2(C#N)CC2)n(Cc2ccccc2)n1 [Example 445, (2S,4R)-1-(2-Benzyl-5-methyl-2H-pyrazol-3-yl)-4-cyclopropylmethanesulfonyl-pyrrolidine-2-carboxylic acid (1-cyano-cyclopropyl)-amide] | ≥ 25000 nM | 725 nM
N#CC1(NC(=O)[C@@H]2C[C@@H](S(=O)(=O)c3ccccc3Cl)CN2C(=O)C2(c3ccc(Cl)c(F)c3)CC2)CC1 [Example 446, (2S,4R)-4-(2-Chloro-benzenesulfonyl)-1-[1-(4-chloro-3-fluoro-phenyl)-cyclopropanecarbonyl]-pyrrolidine-2-carboxylic acid (1-cyano-cyclopropyl)-amide] | 21.5 nM | 0.275 nM
CC(C)(C)c1ccc(C2NC(C(=O)NC3(C#N)CC3)CC2S(=O)(=O)c2ccccc2)cc1 (centres unmarked) [Example 447, 4-Benzenesulfonyl-5-(4-tert-butyl-phenyl)-pyrrolidine-2-carboxylic acid (1-cyano-cyclopropyl)-amide] | ≥ 25000 nM | 6130 nM
Cc1cc(N2C[C@H](S(C)(=O)=O)C[C@H]2C(=O)NC2(C#N)CC2)n(CCc2ccccc2)n1 [Example 448, (2S,4R)-4-Methanesulfonyl-1-(5-methyl-2-phenethyl-2H-pyrazol-3-yl)-pyrrolidine-2-carboxylic acid (1-cyano-cyclopropyl)-amide] | ≥ 25000 nM | 8370 nM
Cc1cc(N2C[C@H](S(C)(=O)=O)C[C@H]2C(=O)NC2(C#N)CC2)n(Cc2ccccc2)n1 [Example 449, (2S,4R)-1-(2-Benzyl-5-methyl-2H-pyrazol-3-yl)-4-methanesulfonyl-pyrrolidine-2-carboxylic Acid (1-cyano-cyclopropyl)-amide] | ≥ 25000 nM | 10500 nM
C=CCOc1ccccc1S(=O)(=O)[C@@H]1C[C@@H](C(=O)NC2(C#N)CC2)N(C(=O)OC(C)(C)C)C1 [Example 450, (2S,4R)-4-(2-Allyloxy-benzenesulfonyl)-2-(1-cyano-cyclopropylcarbamoyl)-pyrrolidine-1-carboxylic acid tert-butyl ester] | ≥ 25000 nM | 675 nM
N#CC1(NC(=O)[C@@H]2C[C@@H](S(=O)(=O)c3ccc(OCC(F)(F)F)cc3C(F)(F)F)CN2C(=O)C2(CO)CC2)CC1 [Example 451, (2S,4R)-1-(1-Hydroxymethyl-cyclopropanecarbonyl)-4-[4-(2,2,2-trifluoro-ethoxy)-2-trifluoromethyl-benzenesulfonyl]-pyrrolidine-2-carboxylic acid (1-cyano-cyclopropyl)-amide] | 6380 nM | 0.758 nM
N#CC1(NC(=O)[C@@H]2C[C@@H](S(=O)(=O)c3ccccc3Cl)CN2C(=O)C2(CO)CC2)CC1 [Example 452, (2S,4R)-4-(2-Chloro-benzenesulfonyl)-1-(1-hydroxymethyl-cyclopropanecarbonyl)-pyrrolidine-2-carboxylic acid (1-cyano-cyclopropyl)-amide] | 7930 nM | 1.17 nM
C=CCOc1ccccc1S(=O)(=O)[C@H]1CN[C@H](C(=O)NC2(C#N)CC2)C1 [Example 453, (2S,4R)-4-(2-Allyloxy-benzenesulfonyl)-pyrrolidine-2-carboxylic acid (1-cyano-cyclopropyl)-amide] | ≥ 25000 nM | 845 nM
CC1(C(=O)N2C[C@H](S(=O)(=O)CC3CC3)C[C@H]2C(=O)NC2(C#N)CC2)CC1 [Example 454, (2S,4R)-4-Cyclopropylmethanesulfonyl-1-(1-methyl-cyclopropanecarbonyl)-pyrrolidine-2-carboxylic acid (1-cyano-cyclopropyl)-amide] | ≥ 25000 nM | 1660 nM
C=CCN[C@@H](C(=O)N1C[C@H](S(=O)(=O)c2ccccc2OCC=C)C[C@H]1C(=O)NC1(C#N)CC1)c1ccc(Cl)cc1 [Example 455, (2S,4R)-1-[(R)-2-Allylamino-2-(4-chloro-phenyl)-acetyl]-4-(2-allyloxy-benzenesulfonyl)-pyrrolidine-2-carboxylic acid (1-cyano-cyclopropyl)-amide] | ≥ 25000 nM | 77 nM
